From paper PMC12616683, “In Vivo Atlas of Neuroprotective Cyclic Dipeptides Derived from Food Gelatin Using Peptidomics and Feature-Based Molecular Networking” (Journal of Agricultural and Food Chemistry, 2025) come the findings set out here.

The nature of this data set: FBMN analysis of short peptides in small intestine contents and serum after oral DHG. Particulars: for Peptide signal (feature intensity) in the small intestine, 30 min / Peptide signal (feature intensity) in the small intestine, 60 min / Peptide signal (feature intensity) in the small intestine, 120 min / Peptide signal (feature intensity) in the small intestine, 240 min: small intestine contents, C57 mice, FBMN feature intensity, peptides smaller than 690 Da; for Peptide signal (feature intensity) in the small intestine, 30 min: 30 min after oral DHG; for Peptide signal (feature intensity) in the small intestine, 60 min: 60 min after oral DHG; for Peptide signal (feature intensity) in the small intestine, 120 min: 120 min after oral DHG; for Peptide signal (feature intensity) in the small intestine, 240 min: 240 min after oral DHG; for time detected in serum (FBMN): time points 0.5-4 h after oral DHG.

Molecules are shown by their SMILES. Peptide text beside a SMILES is read from it. Bounds are passed on as bounds.

`CC[C@H](C)[C@H](NC(=O)[C@@H](N)CC(N)=O)C(=O)O` [Asn-Ile] (H-Asn-Ile-OH): the “Peptide signal (feature intensity) in the small intestine, 30 min” value (“Peptide signal (feature intensity) … 30 min” for short) is 1.55E+06; the “Peptide signal (feature intensity) in the small intestine, 60 min” value (from here on “Peptide signal (feature intensity) … 60 min”) is listed as 1.54E+06; the “Peptide signal (feature intensity) in the small intestine, 120 min” value (from here on “Peptide signal (feature intensity) … 120 min”) amounted to 4.19E+06; the “Peptide signal (feature intensity) in the small intestine, 240 min” value (shortened to “Peptide signal (feature intensity) … 240 min”) came to 2.54E+06.

Consider `NC(=O)C[C@H](N)C(=O)N[C@@H](Cc1ccccc1)C(=O)O` [Asn-Phe] (H-Asn-Phe-OH), for which the “Peptide signal (feature intensity) … 30 min” value is listed as 2.16E+06; the “Peptide signal (feature intensity) … 60 min” value stood at 2.86E+06; the “Peptide signal (feature intensity) … 120 min” value is given as 5.41E+06; the “Peptide signal (feature intensity) … 240 min” value came out at 4.96E+06.

On to `CC(C)C[C@H](NC(=O)[C@@H](N)CC(=O)O)C(=O)O` [Asp-Leu] (H-Asp-Leu-OH), for which the “Peptide signal (feature intensity) … 30 min” value turned out to be 5.68E+06; the “Peptide signal (feature intensity) … 60 min” value is on record as 2.91E+06; the “Peptide signal (feature intensity) … 120 min” value was found to be 7.39E+06; the “Peptide signal (feature intensity) … 240 min” value stood at 1.44E+07.

Regarding `N[C@@H](CC(=O)O)C(=O)N[C@@H](Cc1ccccc1)C(=O)O` [Asp-Phe] (H-Asp-Phe-OH), the “time detected in serum (FBMN)” value was “only detected in the first hour”; the “Peptide signal (feature intensity) … 30 min” value is listed as 3.76E+07; the “Peptide signal (feature intensity) … 60 min” value stood at 6.08E+07; the “Peptide signal (feature intensity) … 120 min” value was determined as 1.22E+08. For the same molecule, the “Peptide signal (feature intensity) … 240 min” value is reported as 1.29E+08.

For the molecule `N[C@@H](CC(=O)O)C(=O)N1CCC[C@H]1C(=O)O` [Asp-Pro] (H-Asp-Pro-OH), the “Peptide signal (feature intensity) … 30 min” value is reported as 0.00E+00; the “Peptide signal (feature intensity) … 60 min” value is listed as 7.32E+06; the “Peptide signal (feature intensity) … 120 min” value came to 1.15E+07; the “Peptide signal (feature intensity) … 240 min” value is 2.09E+07.

Turning to `N[C@@H](CCC(=O)O)C(=O)N[C@@H](Cc1ccccc1)C(=O)O` [Glu-Phe], the “time detected in serum (FBMN)” value is recorded as at least 4 h; the “Peptide signal (feature intensity) … 30 min” value is reported as 0.00E+00; the “Peptide signal (feature intensity) … 60 min” value is given as 3.96E+06; the “Peptide signal (feature intensity) … 120 min” value was determined as 0.00E+00. For the same molecule, the “Peptide signal (feature intensity) … 240 min” value is on record as 1.66E+07.

`N[C@@H](CCC(=O)O)C(=O)N[C@@H](Cc1ccc(O)cc1)C(=O)O` [Glu-Tyr] (H-Glu-Tyr-OH): the “Peptide signal (feature intensity) … 30 min” value was found to be 6.78E+05; the “Peptide signal (feature intensity) … 60 min” value was 4.16E+05; the “Peptide signal (feature intensity) … 120 min” value was determined as 0.00E+00; the “Peptide signal (feature intensity) … 240 min” value is reported as 1.73E+06.

Consider `CC(C)[C@H](NC(=O)[C@@H](N)CCC(=O)O)C(=O)N[C@@H](Cc1ccccc1)C(=O)O` [Glu-Val-Phe] (H-Glu-Val-Phe-OH), for which the “Peptide signal (feature intensity) … 30 min” value is recorded as 2.73E+05; the “Peptide signal (feature intensity) … 60 min” value is recorded as 1.52E+05; the “Peptide signal (feature intensity) … 120 min” value came out at 4.18E+05; the “Peptide signal (feature intensity) … 240 min” value amounted to 1.30E+06.

Turning to `CC[C@H](C)[C@H](NC(=O)CN)C(=O)O` [Gly-Ile] (H-Gly-Ile-OH), the “Peptide signal (feature intensity) … 30 min” value stood at 1.17E+07; the “Peptide signal (feature intensity) … 60 min” value came to 1.01E+07; the “Peptide signal (feature intensity) … 120 min” value amounted to 0.00E+00; the “Peptide signal (feature intensity) … 240 min” value amounted to 0.00E+00.

Turning to `CC(C)C[C@H](NC(=O)CN)C(=O)O` [Gly-Leu], the “Peptide signal (feature intensity) … 30 min” value was 0.00E+00; the “Peptide signal (feature intensity) … 60 min” value is given as 4.18E+07; the “Peptide signal (feature intensity) … 120 min” value was determined as 0.00E+00; the “Peptide signal (feature intensity) … 240 min” value is listed as 4.47E+07.

`CSCC[C@H](NC(=O)CN)C(=O)O` [Gly-Met]: the “Peptide signal (feature intensity) … 30 min” value was 2.08E+06; the “Peptide signal (feature intensity) … 60 min” value was 7.49E+05; the “Peptide signal (feature intensity) … 120 min” value came to 0.00E+00; the “Peptide signal (feature intensity) … 240 min” value was 0.00E+00.

On to `NCC(=O)N[C@@H](Cc1ccc(O)cc1)C(=O)O` [Gly-Tyr] (H-Gly-Tyr-OH), for which the “Peptide signal (feature intensity) … 30 min” value is listed as 0.00E+00; the “Peptide signal (feature intensity) … 60 min” value worked out at 5.39E+06; the “Peptide signal (feature intensity) … 120 min” value was 0.00E+00; the “Peptide signal (feature intensity) … 240 min” value is recorded as 2.06E+07.

On to `CC(C)[C@H](NC(=O)CN)C(=O)O` [Gly-Val] (H-Gly-Val-OH), for which the “Peptide signal (feature intensity) … 30 min” value is 0.00E+00; the “Peptide signal (feature intensity) … 60 min” value was found to be 3.54E+06; the “Peptide signal (feature intensity) … 120 min” value was 0.00E+00; the “Peptide signal (feature intensity) … 240 min” value was 2.70E+06.

As for `Nc1nc2c(ncn2[C@@H]2O[C@H](CO)[C@@H](O)[C@H]2O)c(=O)[nH]1` [Guanosine], the “Peptide signal (feature intensity) … 30 min” value is recorded as 8.57E+06; the “Peptide signal (feature intensity) … 60 min” value is on record as 2.01E+06; the “Peptide signal (feature intensity) … 120 min” value is reported as 0.00E+00; the “Peptide signal (feature intensity) … 240 min” value came out at 0.00E+00.

Take `CC[C@H](C)[C@H](NC(=O)[C@@H](N)Cc1cnc[nH]1)C(=O)O` [His-Ile] (H-His-Ile-OH): the “Peptide signal (feature intensity) … 30 min” value was determined as 1.87E+07; the “Peptide signal (feature intensity) … 60 min” value was found to be 0.00E+00; the “Peptide signal (feature intensity) … 120 min” value was found to be 2.72E+07; the “Peptide signal (feature intensity) … 240 min” value amounted to 2.33E+07.

Regarding `N[C@@H](Cc1cnc[nH]1)C(=O)N1CCC[C@H]1C(=O)O` [His-Pro], the “Peptide signal (feature intensity) … 30 min” value is on record as 4.26E+07; the “Peptide signal (feature intensity) … 60 min” value is recorded as 5.51E+07; the “Peptide signal (feature intensity) … 120 min” value is recorded as 0.00E+00; the “Peptide signal (feature intensity) … 240 min” value is given as 8.49E+06.

For `N[C@@H](Cc1cnc[nH]1)C(=O)N[C@@H](Cc1c[nH]c2ccccc12)C(=O)O` [His-Trp], the “Peptide signal (feature intensity) … 30 min” value is recorded as 1.94E+06; the “Peptide signal (feature intensity) … 60 min” value was determined as 0.00E+00; the “Peptide signal (feature intensity) … 120 min” value is 1.97E+06; the “Peptide signal (feature intensity) … 240 min” value is listed as 5.05E+06.

Consider `CC[C@H](C)[C@H](N)C(=O)N[C@@H](CC(N)=O)C(=O)O` [Ile-Asn] (H-Ile-Asn-OH), for which the “Peptide signal (feature intensity) … 30 min” value turned out to be 7.93E+06; the “Peptide signal (feature intensity) … 60 min” value turned out to be 7.66E+06; the “Peptide signal (feature intensity) … 120 min” value is recorded as 0.00E+00; the “Peptide signal (feature intensity) … 240 min” value was 0.00E+00.

With `CC[C@H](C)[C@H](N)C(=O)N[C@@H](CCC(=O)O)C(=O)N[C@@H](CCCCN)C(=O)O` [Ile-Glu-Lys] (H-Ile-Glu-Lys-OH), the “Peptide signal (feature intensity) … 30 min” value is reported as 0.00E+00; the “Peptide signal (feature intensity) … 60 min” value worked out at 6.83E+05; the “Peptide signal (feature intensity) … 120 min” value is given as 0.00E+00; the “Peptide signal (feature intensity) … 240 min” value turned out to be 2.93E+06.

As to `CC[C@H](C)[C@H](N)C(=O)NCC(=O)N[C@H](C(=O)O)[C@@H](C)CC` [Ile-Gly-Ile] (H-Ile-Gly-Ile-OH), the “Peptide signal (feature intensity) … 30 min” value turned out to be 0.00E+00; the “Peptide signal (feature intensity) … 60 min” value was 2.90E+06; the “Peptide signal (feature intensity) … 120 min” value was 1.40E+06; the “Peptide signal (feature intensity) … 240 min” value was found to be 1.45E+06.

Turning to `CC[C@H](C)[C@H](N)C(=O)N[C@H](C(=O)N[C@@H](CCCCN)C(=O)O)[C@@H](C)CC` [Ile-Ile-Lys] (H-Ile-Ile-Lys-OH), the “Peptide signal (feature intensity) … 30 min” value amounted to 3.33E+05; the “Peptide signal (feature intensity) … 60 min” value is on record as 2.00E+05; the “Peptide signal (feature intensity) … 120 min” value came out at 0.00E+00; the “Peptide signal (feature intensity) … 240 min” value was 0.00E+00.

In the case of `CC[C@H](C)[C@H](N)C(=O)N[C@@H](CC(C)C)C(=O)O` [Ile-Leu] (H-Ile-Leu-OH), the “Peptide signal (feature intensity) … 30 min” value turned out to be 3.18E+06; the “Peptide signal (feature intensity) … 60 min” value amounted to 3.36E+06; the “Peptide signal (feature intensity) … 120 min” value is reported as 0.00E+00; the “Peptide signal (feature intensity) … 240 min” value is recorded as 0.00E+00.

For the molecule `CCC(C)C(N)C(=O)NC(CCCCN)C(=O)O` (stereo not drawn) [Ile-Lys] (H-Ile-Lys-OH; configuration not given here), the “Peptide signal (feature intensity) … 30 min” value was 0.00E+00; the “Peptide signal (feature intensity) … 60 min” value came out at 0.00E+00; the “Peptide signal (feature intensity) … 120 min” value was determined as 0.00E+00; the “Peptide signal (feature intensity) … 240 min” value was 0.00E+00.

For `CCC(C)C(N)C(=O)N1CCCC1C(=O)O` (stereo not drawn) [Ile-Pro] (H-Ile-Pro-OH; configuration not given here), the “Peptide signal (feature intensity) … 30 min” value turned out to be 1.26E+07; the “Peptide signal (feature intensity) … 60 min” value amounted to 6.59E+06; the “Peptide signal (feature intensity) … 120 min” value came out at 1.48E+07; the “Peptide signal (feature intensity) … 240 min” value is recorded as 2.26E+07.

As for `CCC(C)C(N)C(=O)NC(C(=O)O)C(C)O` (stereo not drawn) [Ile-Thr] (H-Ile-Thr-OH; configuration not given here), the “Peptide signal (feature intensity) … 30 min” value stood at 6.56E+06; the “Peptide signal (feature intensity) … 60 min” value came to 7.13E+06; the “Peptide signal (feature intensity) … 120 min” value amounted to 0.00E+00; the “Peptide signal (feature intensity) … 240 min” value is reported as 0.00E+00.
